US12427160B2, “Use of cannabinoids in the treatment of epilepsy” (Jazz Pharmaceuticals Research UK Limited, priority 2014, dated 2025)

What was measured:
[1] = tested on: children and young adults with severe, childhood onset treatment-resistant epilepsy (TRE); assay: Expanded access compassionate use program: 50% responders after 12 weeks of CBD added to baseline AED; assay type: in vivo, human; settings: 12 weeks of treatment
generalized epilepsy = settings: eight adult patients with generalized epilepsy; cited from earlier work
seizures [2] = settings: 200 mg/day of pure CBD, open label, twelve institutionalized adult patients; cited from earlier work
Lennox-Gastaut syndrome = settings: CBD in an oily solution, a child with Lennox-Gastaut syndrome; cited from earlier work
[3] = Solubility of the drug substance in water; assay type: physicochemical
Description: Sesame oil was selected as an excipient to solubilize the drug substance.

seizures [4] = settings: 200 mg/day of pure CBD, four adult patients; cited from earlier work
seizures in mice = settings: after pro-convulsant drugs or an electric current; cited from earlier work
[5] = in vivo; cited from earlier work

SMILES | <50% reduction in seizures, proportion of patients, absence seizures ([1]; absence seizures (n = 28)) | >50% reduction in seizures, proportion of patients, absence seizures ([1]; absence seizures (n = 28)) | <50% reduction in seizures, proportion of patients, clonic seizures ([1]; clonic seizures (n = 8)) | >50% reduction in seizures, proportion of patients, clonic seizures ([1]; clonic seizures (n = 8)) | <50% reduction in seizures, proportion of patients, myoclonic seizures ([1]; myoclonic seizures (n = 30)) | >50% reduction in seizures, proportion of patients, myoclonic seizures ([1]; myoclonic seizures (n = 30)) | <50% reduction in seizures, proportion of patients, tonic seizures ([1]; tonic seizures (n = 45)) | >50% reduction in seizures, proportion of patients, tonic seizures ([1]; tonic seizures (n = 45)) | <50% reduction in seizures, proportion of patients, tonic-clonic seizures ([1]; tonic-clonic seizures (n = 65)) | >50% reduction in seizures, proportion of patients, tonic-clonic seizures ([1]; tonic-clonic seizures (n = 65)) | <50% reduction in seizures, proportion of patients, total seizures ([1]; total seizures (n = 137)) | reduction of seizures (generalized epilepsy) | control of seizures (seizures [2]) | seizure frequency (Lennox-Gastaut syndrome) | solubility in water [3] | seizure freedom / seizure frequency (seizures [4]) | prevention of seizures (seizures in mice) | pro-convulsant effect [5]
C=C(C)[C@@H]1CCC(C)=C[C@H]1c1c(O)cc(CCCCC)cc1O [CBD, Cannabidiol] | 36% | 64% | 50% | 50% | 57% | 43% | 51% | 49% | 37% | 43% | 54% (n = 74) | marked reduction of seizures in 4 of the patients | ineffective in controlling seizures | improvement in seizure frequency | insoluble in water | two of the four patients became seizure free | able to prevent seizures in mice | –
CCCCCc1cc(O)c2c(c1)OC(C)(C)[C@@H]1CCC(C)=C[C@@H]21 [THC, Tetrahydrocannabinol] | – | – | – | – | – | – | – | – | – | – | – | – | – | – | – | – | – | pro-convulsant
